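Test compounds were applied to cells in 96-well plates for 48 hours at 5 doses. Here, GI50 denotes the concentration required for 50% inhibition of growth. At the TGI there is no net growth.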
Experiments:
Assay in all cases: NCI tumour cell line growth inhibition, 48 h
[1] = system: SF-268 CNS
[2] = system: UACC-257 melanoma
[3] = system: HCT-15 colon
[4] = system: MDA-MB-468 breast
[5] = system: ACHN renal
[6] = system: SF-295 CNS
[7] = system: BT-549 breast
[8] = system: PC-3 prostate
[9] = system: EKVX NSCLC
[10] = system: NCI-H226 lung
[11] = system: A549 NSCLC
[12] = system: K-562 leukemia
[13] = system: MALME-3M melanoma
[14] = system: COLO 205 colon
[15] = system: HCC-2998 colon
[16] = system: M14 melanoma
[17] = system: SK-MEL-28 melanoma
[18] = system: OVCAR-4 ovarian
[19] = system: A498 renal
[20] = system: KM12 colon
[21] = system: MCF7 breast
[22] = system: MDA-MB-435
[23] = system: T-47D breast
[24] = system: SK-OV-3 ovarian
[25] = system: SK-MEL-5 melanoma
[26] = system: SR leukemia
[27] = system: MOLT-4 leukemia
[28] = system: IGROV1 ovarian
[29] = system: NCI-H23 lung
[30] = system: U251 CNS
[31] = system: HCT-116 colon
[32] = system: NCI/ADR-RES ovarian
[33] = system: UACC-62 melanoma
[34] = system: SN12C renal
[35] = system: HOP-62 NSCLC
[36] = system: HS 578T breast
[37] = system: NCI-H460 lung
[38] = system: RXF 393 renal
[39] = system: RPMI-8226 leukemia
[40] = system: LOX IMVI melanoma
[41] = system: 786-0 renal
[42] = system: SW-620 colon
[43] = system: NCI-H522 lung
[44] = system: OVCAR-5 ovarian
[45] = system: TK-10 renal
[46] = system: DU-145 prostate
[47] = system: HOP-92 NSCLC
[48] = system: SNB-19 CNS
[49] = system: CCRF-CEM leukemia
[50] = system: OVCAR-3 ovarian
[51] = system: HL-60(TB) leukemia
[52] = system: HT29 colon
[53] = system: SF-539 CNS
[54] = system: CAKI-1 renal
[55] = system: OVCAR-8 ovarian

O=C(Nc1ccc(F)cc1)Nc1nc2ccc([N+](=O)[O-])cc2s1
GI50 [1]: 2.78 µM
TGI [1]: 11.3 µM
GI50 [2]: 2.27 µM
TGI [2]: 6.48 µM
GI50 [3]: 2.73 µM
TGI [3]: 10.2 µM
GI50 [4]: 2.36 µM
TGI [4]: 6.75 µM
GI50 [5]: 3.09 µM
TGI [5]: 9.82 µM
GI50 [6]: 2.04 µM
TGI [6]: 5.27 µM
GI50 [7]: 1.95 µM
TGI [7]: 5.03 µM
GI50 [8]: 3.48 µM
TGI [8]: 12.3 µM
GI50 [9]: 2.9 µM
TGI [9]: 10.3 µM
GI50 [10]: 3.34 µM
TGI [10]: 11.7 µM
GI50 [11]: 2.75 µM
TGI [11]: 11.6 µM
GI50 [12]: 3.03 µM
TGI [12]: 10.4 µM
GI50 [13]: 1.96 µM
TGI [13]: 5.38 µM
GI50 [14]: 2.1 µM
TGI [14]: 3.97 µM
GI50 [15]: 3.56 µM
TGI [15]: 12.5 µM
GI50 [16]: 2.7 µM
TGI [16]: 10.7 µM
GI50 [17]: 3 µM
TGI [17]: 11 µM
GI50 [18]: 3.3 µM
TGI [18]: 13.2 µM
GI50 [19]: 2.26 µM
TGI [19]: 6.46 µM
GI50 [20]: 3.05 µM
TGI [20]: 10.5 µM
GI50 [21]: 2.51 µM
TGI [21]: 8.65 µM
GI50 [22]: 3.18 µM
TGI [22]: 11.3 µM
GI50 [23]: 2.58 µM
TGI [23]: 7.68 µM
GI50 [24]: 2.14 µM
TGI [24]: 6.98 µM
GI50 [25]: 1.73 µM
TGI [25]: 3.3 µM
GI50 [26]: 1.86 µM
TGI [26]: 5.02 µM
GI50 [27]: 2.41 µM
TGI [27]: 6.77 µM
GI50 [28]: 3.93 µM
TGI [28]: 14.5 µM
GI50 [29]: 2.45 µM
TGI [29]: 6.21 µM
GI50 [30]: 3.3 µM
TGI [30]: 11.3 µM
GI50 [31]: 2.92 µM
TGI [31]: 10.4 µM
GI50 [32]: 2.85 µM
TGI [32]: 9.36 µM
GI50 [33]: 2.62 µM
TGI [33]: 9.22 µM
GI50 [34]: 2.59 µM
TGI [34]: 8.12 µM
GI50 [35]: 3.19 µM
TGI [35]: 11.8 µM
GI50 [36]: 2.6 µM
TGI [36]: 8.28 µM
GI50 [37]: 2.89 µM
TGI [37]: 9.77 µM
GI50 [38]: 2.65 µM
TGI [38]: 8.72 µM
GI50 [39]: 1.92 µM
TGI [39]: 5.04 µM
GI50 [40]: 3.58 µM
TGI [40]: 12.8 µM
GI50 [41]: 3.07 µM
TGI [41]: 11.5 µM
GI50 [42]: 3.41 µM
TGI [42]: 12.7 µM
GI50 [43]: 2.37 µM
TGI [43]: 7.56 µM
GI50 [44]: 3.45 µM
TGI [44]: 12.9 µM
GI50 [45]: 3.29 µM
TGI [45]: 12 µM
GI50 [46]: 3.94 µM
TGI [46]: 14 µM
GI50 [47]: 2.59 µM
TGI [47]: 7.13 µM
GI50 [48]: 3.21 µM
TGI [48]: 12.2 µM
GI50 [49]: 2.61 µM
TGI [49]: 10.5 µM
GI50 [50]: 3.45 µM
TGI [50]: 12.1 µM
GI50 [51]: 1.97 µM
TGI [51]: 4.67 µM
GI50 [52]: 3.42 µM
TGI [52]: 11 µM
GI50 [53]: 2.59 µM
TGI [53]: 6.91 µM
GI50 [54]: 2.96 µM
TGI [54]: 10.7 µM
GI50 [55]: 3.42 µM
TGI [55]: 11.9 µM

From PubChem BioAssay (NCI)
